Read-outs that look alike come from different tables or passages of the source.
Key:
KRas G12C = KRas G12C (Homo sapiens, UniProt P01116, C118S/C51S/C80L/G12C); assay: KRas G12C Modification Assay (LCMS detection of covalent adduct); type: binding; details: normalized percent of control; tested at 5 μM concentration for 3 hours
Method in brief: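 Cys-light KRas G12C mutant protein incubated with compound in K-Ras assay buffer, reactions quenched at set time points with 25 mM acetic acid and analysed by intact-protein LC/MS on a C-3 column. Deconvoluted mass heights expressed as percent of control (POC) relative to compound-free protein.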

[1] = system: NCI-H358 cells (express KRas G12C), Phospho-ERK; assay: Cellular inhibition of KRas G12C: Phospho-ERK in NCI-H358 cells; type: cell-based; details: Homo sapiens, pERK(Thr202/Tyr204) normalized with GAPDH, NCI-H358 cells, 3 hours, read-out: IC50
Method in brief: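 IC50 derived by 4-parameter fit of GAPDH-normalized pERK(Thr202/Tyr204) signal, as percent of DMSO control. Signal came from in-cell immunodetection with infrared secondaries after 3 h compound exposure of KRas G12C NCI-H358 cells at 0.5% DMSO.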

Structure (SMILES)	POC (KRas G12C)	IC50 ([1]; NCI-H358, 3 h)	IC50 [1]
C=CC(=O)N1CCN(c2nc(O[C@H](C)CN3CC[C@H](O)C3)nc3c2CCN(c2cc(O)cc4ccccc24)C3)CC1 [Example 65, 1-(4-(7-(3-hydroxynaphthalen-1-yl)-2-(((R)-1-((S)-3-hydroxypyrrolidin-1-yl)propan-2-yl)oxy)-5,6,7,8-tetrahydropyrido[3,4-d]pyrimidin-4-yl)piperazin-1-yl)prop-2-en-1-one]	C (“C”>50% POC)	> 1 µM	–
C=CC(=O)N1CCN(c2ncnc3c2CC(=O)N(c2cc(O)cc4ccccc24)C3)CC1 [Example 113, 4-(4-acryloylpiperazin-1-yl)-7-(3-hydroxynaphthalen-1-yl)-7,8-dihydropyrido[3,4-d]pyrimidin-6(5H)-one]	C (“C”>50% POC)	–	> 1 µM
C=CC(=O)N1CCN(c2nc(OCCN(C)C)nc3c2CCN(c2cc(O)cc4ccccc24)C3)C[C@@H]1C [Example 14]	C (“C”>50% POC)	> 1 µM	–
C=CC(=O)N1CCN(c2nc(N3CCC(N(C)C)C3)nc3c2CCN(c2cc(O)cc4ccccc24)C3)CC1 (centres unmarked) [Example 13, 1-(4-(2-(3-(dimethylamino)pyrrolidin-1-yl)-7-(3-hydroxynaphthalen-1-yl)-5,6,7,8-tetrahydropyrido[3,4-d]pyrimidin-4-yl)piperazin-1-yl)prop-2-en-1-one]	C (“C”>50% POC)	> 1 µM	–
C=CC(=O)N1CCN(c2nc(OC[C@@H]3CCCN3C)nc3c2CCN(c2ccccc2CC(F)(F)F)C3)CC1CC#N (stereo partly drawn) [Example 240, 2-(1-acryloyl-4-(2-(((S)-1-methylpyrrolidin-2-yl)methoxy)-7-(2-(2,2,2-trifluoroethyl)phenyl)-5,6,7,8-tetrahydropyrido[3,4-d]pyrimidin-4-yl)piperazin-2-yl)acetonitrile]	C (“C”>50% POC)	> 1 µM	–
C/C=C/C(=O)N1CCN(c2nc(OC[C@@H]3CCCN3C)nc3c2CCN(c2cccc4ccccc24)C3)CC1CC#N (stereo partly drawn) [Example 263, 2-[1-[(E)-but-2-enoyl]-4-[2-[[(2S)-1-methylpyrrolidin-2-yl]methoxy]-7-(1-naphthyl)-6,8-dihydro-5H-pyrido[3,4-d]pyrimidin-4-yl]piperazin-2-yl]acetonitrile]	C (“C”>50% POC)	0.0001 to 1 µM	–

Further lines, with some results ahead:

POC (KRas G12C)	Structure (SMILES)	IC50 ([1]; NCI-H358, 3 h)	IC50 [1]
C (“C”>50% POC)	C=CC(=O)N1CCN(c2nc(OC[C@@H]3C[C@@H](OC)CN3C)nc3c2CCN(c2cccc4ccccc24)C3)C[C@@H]1CC#N [Example 327, 2-((S)-1-acryloyl-4-(2-(((2S,4R)-4-methoxy-1-methylpyrrolidin-2-yl)methoxy)-7-(naphthalen-1-yl)-5,6,7,8-tetrahydropyrido[3,4-d]pyrimidin-4-yl)piperazin-2-yl)acetonitrile]	0.0001 to 1 µM	–
B (“B”>25% POC−≤50% POC)	C=CC(=O)N1CCN(c2nc(OCCN3CCC(F)C3)nc3c2CCN(c2cc(O)cc4ccccc24)C3)CC1 (centres unmarked) [Example 49, 1-(4-(2-(2-(3-fluoropyrrolidin-1-yl)ethoxy)-7-(3-hydroxynaphthalen-1-yl)-5,6,7,8-tetrahydropyrido[3,4-d]pyrimidin-4-yl)piperazin-1-yl)prop-2-en-1-one]	> 1 µM	–
C (“C”>50% POC)	C=CC(=O)N1CCN(c2nc(OCCN3CCCCC3)nc3c2CCN(c2cccc4ccccc24)C3)CC1CC#N (centres unmarked) [Example 303, 2-[4-[7-(1-naphthyl)-2-[2-(1-piperidyl)ethoxy]-6,8-dihydro-5H-pyrido[3,4-d]pyrimidin-4-yl]-1-prop-2-enoyl-piperazin-2-yl]acetonitrile]	0.0001 to 1 µM	–
A (“A”≤25% POC)	C=CC(=O)N1CCN(c2nc(OC[C@@H]3C[C@@H](F)CN3C)nc3c2CCN(c2cc(OC)cc4ccccc24)C3)CC1 [Example 355, 1-[4-[2-[[(2S,4R)-4-fluoro-1-methyl-pyrrolidin-2-yl]methoxy]-7-(3-methoxy-1-naphthyl)-6,8-dihydro-5H-pyrido[3,4-d]pyrimidin-4-yl]piperazin-1-yl]prop-2-en-1-one]	> 1 µM	–
